± gives the expanded uncertainty stated by the source.
Assay: xn = mol fraction of the nth substance listed
Conditions: 101.3 kPa, Liquid; for speed of sound: Sing-around technique in a fixed-path interferometer

CCOC(C)(C)C [2-ethoxy-2-methylpropane] + CC(C)(C)O
Conditions	mass density, 303.15 K [kg/m3]	mass density, 313.15 K [kg/m3]	mass density, 323.15 K [kg/m3]	speed of sound, 303.15 K [m/s]	speed of sound, 313.15 K [m/s]	speed of sound, 323.15 K [m/s]
x1 = 0.06	770.981 ± 1	760.486 ± 1	749.635 ± 1.1	1085.9 ± 2.2	1043.4 ± 2.2	1001.6 ± 2.2
x1 = 0.093	768.859 ± 1	758.385 ± 1	747.565 ± 1.1	1079.5 ± 2.2	1037.4 ± 2.2	996.19 ± 2.2
x1 = 0.2	762.345 ± 1	751.936 ± 1.1	741.141 ± 1.1	1062.9 ± 2.2	1021.9 ± 2.2	980.83 ± 2.2
x1 = 0.298	757.005 ± 1	746.63 ± 1.1	735.846 ± 1.1	1050.7 ± 2.2	1010.1 ± 2.2	969.12 ± 2.2
x1 = 0.386	752.738 ± 1.1	742.309 ± 1.1	731.52 ± 1.1	1041.5 ± 2.2	1000.3 ± 2.2	959.27 ± 2.2
x1 = 0.488	748.226 ± 1.1	737.777 ± 1.1	726.96 ± 1.1	1033.5 ± 2.2	992.26 ± 2.2	950.9 ± 2.2
x1 = 0.632	742.556 ± 1.1	732.028 ± 1.1	721.169 ± 1.1	1024.7 ± 2.2	982.68 ± 2.2	940.83 ± 2.2
x1 = 0.685	740.622 ± 1.1	730.077 ± 1.1	719.198 ± 1.2	1022.1 ± 2.2	979.93 ± 2.2	937.72 ± 2.2
x1 = 0.796	736.85 ± 1.1	726.255 ± 1.1	715.369 ± 1.2	1017.9 ± 2.2	975.09 ± 2.2	932.37 ± 2.2
x1 = 0.896	733.592 ± 1.1	722.99 ± 1.1	712.15 ± 1.2	1014.9 ± 2.2	971.48 ± 2.2	928.25 ± 2.2
x1 = 0.949	731.862 ± 1.1	721.29 ± 1.1	710.507 ± 1.2	1013.4 ± 2.2	969.31 ± 2.2	925.71 ± 2.2
x1 = 1	730.186 ± 1.1	719.687 ± 1.2	708.996 ± 1.2	1010.2 ± 2.2	965.87 ± 2.2	922.08 ± 2.2

CCOC(C)(C)C [2-ethoxy-2-methylpropane] + CC(C)CC(C)(C)C
Conditions	mass density, 288.15 K [kg/m3]	mass density, 298.15 K [kg/m3]	mass density, 323.15 K [kg/m3]	speed of sound, 288.15 K [m/s]	speed of sound, 298.15 K [m/s]	speed of sound, 323.15 K [m/s]
x1 = 0.047	697.781 ± 1.2	689.477 ± 1.2	668.28 ± 1.3	1121.2 ± 2.2	1078.7 ± 2.2	975.15 ± 2.2
x1 = 0.1	699.904 ± 1.2	691.5 ± 1.2	670.054 ± 1.3	1118.3 ± 2.2	1075.5 ± 2.2	971.5 ± 2.2
x1 = 0.204	704.01 ± 1.2	695.429 ± 1.2	673.45 ± 1.3	1111.9 ± 2.2	1068.9 ± 2.2	964.23 ± 2.2
x1 = 0.305	708.284 ± 1.2	699.51 ± 1.2	677.1 ± 1.3	1106.8 ± 2.2	1063.8 ± 2.2	958.38 ± 2.2
x1 = 0.4	712.599 ± 1.2	703.649 ± 1.2	680.717 ± 1.3	1101.7 ± 2.2	1058.5 ± 2.2	952.41 ± 2.2
x1 = 0.508	717.689 ± 1.2	708.525 ± 1.2	685.059 ± 1.3	1096.5 ± 2.2	1053.1 ± 2.2	946.33 ± 2.2
x1 = 0.596	722.093 ± 1.1	712.737 ± 1.2	688.798 ± 1.2	1092.5 ± 2.2	1048.3 ± 2.2	941.25 ± 2.2
x1 = 0.699	727.55 ± 1.1	717.974 ± 1.2	693.436 ± 1.2	1088.3 ± 2.2	1043.8 ± 2.2	935.64 ± 2.2
x1 = 0.788	732.615 ± 1.1	722.843 ± 1.1	697.73 ± 1.2	1084.9 ± 2.2	1040.1 ± 2.2	931 ± 2.2
x1 = 0.902	739.579 ± 1.1	729.56 ± 1.1	703.808 ± 1.2	1081.5 ± 2.2	1036.6 ± 2.2	927.2 ± 2.2
x1 = 0.949	742.53 ± 1.1	732.405 ± 1.1	706.371 ± 1.2	1080.5 ± 2.2	1035.4 ± 2.2	925.22 ± 2.2
x1 = 1	745.656 ± 1.1	735.357 ± 1.1	709.007 ± 1.2	1078.9 ± 2.2	1033.2 ± 2.2	922.48 ± 2.2

CCOC(C)(C)C [2-ethoxy-2-methylpropane] + CCO
Conditions	mass density, 288.15 K [kg/m3]	mass density, 298.15 K [kg/m3]	mass density, 323.15 K [kg/m3]	speed of sound, 288.15 K [m/s]	speed of sound, 298.15 K [m/s]	speed of sound, 323.15 K [m/s]
x1 = 0.049	790.26 ± 0.94	781.555 ± 0.96	759.223 ± 1	1171.4 ± 2.2	1135.6 ± 2.2	1048.6 ± 2.2
x1 = 0.097	786.997 ± 0.95	778.154 ± 0.97	755.418 ± 1	1165.8 ± 2.2	1128.9 ± 2.2	1038.1 ± 2.2
x1 = 0.198	780.646 ± 0.97	771.547 ± 0.99	748.104 ± 1.1	1150.9 ± 2.2	1112.5 ± 2.2	1018.3 ± 2.2
x1 = 0.303	774.648 ± 0.98	765.324 ± 1	741.204 ± 1.1	1137.4 ± 2.2	1097.5 ± 2.2	999.82 ± 2.2
x1 = 0.395	770.061 ± 1	760.556 ± 1	735.962 ± 1.1	1127.4 ± 2.2	1086.4 ± 2.2	986.27 ± 2.2
x1 = 0.504	765.017 ± 1	755.325 ± 1	730.194 ± 1.1	1116.6 ± 2.2	1074.6 ± 2.2	971.7 ± 2.2
x1 = 0.606	760.667 ± 1	750.815 ± 1.1	725.266 ± 1.1	1108.4 ± 2.2	1065.5 ± 2.2	959.88 ± 2.2
x1 = 0.691	757.429 ± 1	747.458 ± 1.1	721.666 ± 1.1	1101.4 ± 2.2	1058 ± 2.2	950.98 ± 2.2
x1 = 0.802	753.45 ± 1	743.339 ± 1.1	717.148 ± 1.2	1094 ± 2.2	1049.8 ± 2.2	941.56 ± 2.2
x1 = 0.895	749.87 ± 1.1	739.659 ± 1.1	713.326 ± 1.2	1087.8 ± 2.2	1043 ± 2.2	933.37 ± 2.2
x1 = 0.935	748.296 ± 1.1	738.056 ± 1.1	711.669 ± 1.2	1084.8 ± 2.2	1039.8 ± 2.2	929.43 ± 2.2
x1 = 1	745.656 ± 1.1	735.357 ± 1.1	709.007 ± 1.2	1078.9 ± 2.2	1033.2 ± 2.2	922.48 ± 2.2

— the NIST ThermoML archive (doi:10.1016/j.jct.2007.05.005)
